# Results published in patent publication US20130165398A1, “CONCENTRATION-ENHANCING DRINK” (priority 2010, published 2013).
# Where “and” joins values, the source holds several entries; their conditions need not be identical. Identical values can stand only once. Entries after “also recorded” stand apart in the source; their conditions may differ.
# Columns and labels:
# [1] = test system: HeLa S3 cells; experiment: Cell viability by MTT assay, HeLa S3 cells; assay type: cell-based, human; settings: for cell survival with substance as extracellular precursor: FK866, FIG. 3B
# Description: (§4) Inhibitors (2 μm FK866, 2 mM 3-AB, 10 μm NBTI, 2 μm dipyridamol, 2 mM CMP, 25 μm PPADS, 1 mM Ap4A) or metabolites (100 μM NAD^+, 100 μM NAAD, 100 μM NMN, 100 μM NAMN, 100 μM NA, 100 μM NR) were added to the cell culture medium as stated. […] The treatment with inhibitors and metabolites was carried out for 24-48 h before analysis of PAR formation and the viability of the cells (72 h for 293mitoPARP cells, 96 h for HeLa S3 cells and 120 h for HepG2 cells). The viability of the cells was determined by MTT assay.
# [2] = test system: 293mitoPARP cells; experiment: Cell viability by MTT assay, 293mitoPARP cells; assay type: cell-based, human; settings: for cell survival with substance as extracellular precursor: NamPRT inhibited by FK866, FIG. 3A
# Description: as §4
# [3] = test system: NMNAT1; experiment: Expression of NMNAT1 after adding EGCG to human cells; assay type: cell-based; settings: EGCG added to human cells
# [4] = Triple test method: biomedical test battery (breathing rate, skin conductance level, heart rate), index of physiological/mental stress; assay type: in vivo, human
# Description: (§1) Hereinafter the present invention is tested in the context of the Viewpointsystem® vision analyses, using standardized methods of investigation of the Vienna test system and using biomedical studies for stress research. In this method, in the vision laboratory, the triple test method is used with extremely high accuracy for evaluating psychophysical effects up to the degree of attention (cf. EP 1 300 108 A1, WO 2008/151346 A1).
# (§2) 12 subjects were subdivided into 3 groups each of 4 subjects:
# (§3) (1) drink according to the invention (150 mg of EGCG/20 mg of NR in 10 ml of H2O; “energy” or “energy-drink” group (2) EGCG alone (150 mg of EGCG; “green tea” group) (3) placebo (H2O and mannitol; “placebo” group)
# The subjects were then studied systematically with respect to possible effects using the triple test study method, that is vps vision analyses—Vienna test system—biomedical test battery, in a standardized study, in such a manner that objective, statistically significant statements were made possible on the detection of concentration-enhancing activity of the drink according to the invention.
# In parallel thereto, the relevant biomedical characteristics such as skin conductivity, pulse were also detected and evaluated. In total, therefore, in the course of the triple-test studies, for all action-relevant evaluation situations, gaze studies were carried out in the gaze laboratory, the gaze behavior and reaction times were analyzed. The effects on information uptake, including information stress and fatigue, were documented using the standardized gaze methods by raster-analysis programs.
# After a baseline measurement, the study follows, wherein, inter alia, the following values are recorded: • heart frequency (HF: number of heart beats/minute) • blood volume pulse (BVP: measure of amount of blood which is pumped through the body per heart beat) • skin conductance value (SCL: skin conductance level/conductivity level, tonic measure, SCR: skin conductance response/phasic measure; reaction to individual stimuli)
# In the detailed analyses, at the same time the gaze and biomedical data of the study sequences [reaction test (singular stimuli), determination test (multiple optical, acoustic stimuli), film viewing (real sequences from driver viewpoint and film trailers) and semiotics (animal pictures and logos)] were evaluated. Particular attention was paid to the skin conductance level (SCL), the heart rate (pulse; HR) and the breathing rate (AF).
# After the physiological parameters were determined, for each section the statistical parameters mean/standard deviation/min/max/range/85% percentile were determined. In addition, the trend line equations were calculated.
# For further statistical detailed evaluation, the 85% percentile values were used and the relative differences were compiled using the before/after relationship. This change was totaled as a dimension number.
# After categorization of the subjects into 3 comparison groups, the dimension numbers were summed and represent an index of the physiological/mental stress of the subjects. The lower the number, the “more relaxed” the solving of the tasks by the subjects.
# [5] = Triple test method: synchronous gaze studies (Viewpointsystem vision analyses: gaze latencies, blinking, pupil adaptation); assay type: in vivo, human
# Description: as §1, §2, §3
# Using this test system, the changes in attention, vision behavior, reaction, activation and stress were determined in the three groups. In this process the real directions of gaze and gaze motions of subjects were determined in the course of the Vienna test system—in the reaction and determination test, and also in considering defined situation sequences (standardized preset image and film sequences with events) and for selected specific suitability tests—filmed and recorded from the respective field of view (cf. EP 1 300 108 A1, WO 2008/151346 A1). […]
# [6] = test system: 293mitoPARP cells; experiment: Mitochondrial NAD+ content by mitoPARP PAR formation, 293mitoPARP cells; assay type: cell-based, human; settings: NamPRT inhibited by FK866, FIG. 3A
# Description: (§5) Inhibitors (2 μm FK866, 2 mM 3-AB, 10 μm NBTI, 2 μm dipyridamol, 2 mM CMP, 25 μm PPADS, 1 mM Ap4A) or metabolites (100 μM NAD^+, 100 μM NAAD, 100 μM NMN, 100 μM NAMN, 100 μM NA, 100 μM NR) were added to the cell culture medium as stated. […] The treatment with inhibitors and metabolites was carried out for 24-48 h before analysis of PAR formation and the viability of the cells (72 h for 293mitoPARP cells, 96 h for HeLa S3 cells and 120 h for HepG2 cells). The viability of the cells was determined by MTT assay. 293mitoPARP cells were prepared that express a fusion protein (“mitoPARP”), consisting of EGFP and PARP1cd (poly-ADP-ribose polymerase-1) which was targeted to the mitochondrial matrix. With mitochondrial NAD^+ as substrate, these cells generate protein-bound PAR (protein-bound poly-ADP ribose) constitutively, which is visualized immunochemically. Variations in the extent of the PAR detected thereby reflect changes in the mitochondrial NAD^+ content. Likewise, the transient expression of mitoPARP in HepG2 and HeLa S3 cells was used.
# [7] = test system: HepG2 cells; settings: FK866, FIG. 3C
# Description: Inhibitors (2 μm FK866, 2 mM 3-AB, 10 μm NBTI, 2 μm dipyridamol, 2 mM CMP, 25 μm PPADS, 1 mM Ap4A) or metabolites (100 μM NAD^+, 100 μM NAAD, 100 μM NMN, 100 μM NAMN, 100 μM NA, 100 μM NR) were added to the cell culture medium as stated. NR was prepared as described (Dölle et al., Anal, Biochem. 385 (2009), 377-379). The treatment with inhibitors and metabolites was carried out for 24-48 h before analysis of PAR formation and the viability of the cells (72 h for 293mitoPARP cells, 96 h for HeLa S3 cells and 120 h for HepG2 cells). The viability of the cells was determined by MTT assay.
# [8] = test system: mitochondrial NAD^+; experiment: Mitochondrial NAD+ content by mitoPARP PAR formation, cell line not stated; assay type: cell-based, human; settings: for mitochondrial PAR formation from the extracellular precursor on overexpression of NRK1: FIG. 6; for effect of the inhibitor on NR usage: NR as extracellular precursor, FIG. 4B; for function of NMN as extracellular NAD+ precursor in presence of the inhibitor: plasma membrane nucleoside transporter inhibitor added
# [9] = test system: HeLa S3 cells; experiment: Mitochondrial NAD+ content by mitoPARP PAR formation, HeLa S3 cells; assay type: cell-based, human; settings: FK866, FIG. 3B
# Description: as §5
# [10] = test system: human cells; experiment: Cell viability by MTT assay, cell line not stated; assay type: cell-based; settings: NPP inhibitor added
# [11] = CMP competes with NMN for external 5'-nucleotidase
# [12] = semiotics (animal pictures and logos), group sum
compound,measurement,setting,value
Nc1ccn([C@@H]2O[C@H](COP(=O)(O)O)[C@@H](O)[C@H]2O)c(=O)n1 [CMP],cell viability with NMN as precursor on addition of CMP,[1]; [11],decreases the cell viability
same,cell viability with NMN as precursor on addition of CMP,[2]; [11],decreases the cell viability
"O=C(O[C@@H]1Cc2c(O)cc(O)cc2O[C@@H]1c1cc(O)c(O)c(O)c1)c1cc(O)c(O)c(O)c1 [EGCG, (2R,3R)-2-(3,4,5-trihydroxyphenyl)-3,4-dihydro-1(2H)-benzopyran-3,5,7-triol 3-(3,4,5-trihydroxybenzoate)]",increase of expression of NMNAT1,[3],40%
same,"AF (breathing rate) dimension number, Total","[4]; RT+DT+Film+Animals, group sum",14.21
same,"HR (heart rate) dimension number, Total","[4]; RT+DT+Film+Animals, group sum",13.90
same,"SCL (skin conductance level) dimension number, Total","[4]; RT+DT+Film+Animals, group sum",17.79
same,dimension number TOTAL,"[4]; T1+T2, individual subject, lower = more relaxed, listed as Green tea group",10.25 and 12.53 and 12.39 and 10.78
same,"dimension number TOTAL, group Mean","[4]; T1+T2, mean of 4 subjects",11.49
same,"dimension number TOTAL, group Total","[4]; T1+T2, sum of 4 subjects",45.95
same,dimension number T1,"[4]; T1: Vienna test system: reaction test/determination test, individual subject, summed relative before/after differences of 85% percentile values, lower = more relaxed, listed as Green tea group",4.81 and 5.51 and 6.86 and 5.11
same,"dimension number T1, group Mean","[4]; T1: reaction test/determination test, mean of 4 subjects",5.57
same,"dimension number T1, group Total","[4]; T1: reaction test/determination test, sum of 4 subjects",22.29
same,dimension number T2,"[4]; T2: Viewing film sequences/trailers/logos/animals, individual subject, lower = more relaxed, listed as Green tea group",5.45 and 7.02 and 5.53 and 5.67
same,"dimension number T2, group Mean","[4]; T2: film sequences/trailers/logos/animals, mean of 4 subjects",5.92
same,"dimension number T2, group Total","[4]; T2: film sequences/trailers/logos/animals, sum of 4 subjects",23.67
same,"HR (heart rate) dimension number, DT","[4]; determination test, group sum",3.44
same,"SCL (skin conductance level) dimension number, DT","[4]; determination test, group sum",4.17
same,"AF (breathing rate) dimension number, DT","[4]; determination test, group sum, listed as Group 3",3.63 and 3.67
same,"AF (breathing rate) dimension number, Film","[4]; film viewing, group sum",3.90
same,"HR (heart rate) dimension number, Film","[4]; film viewing, group sum",3.61
same,"SCL (skin conductance level) dimension number, Film","[4]; film viewing, group sum",4.90
same,"AF (breathing rate) dimension number, RT","[4]; reaction test, group sum",3.58
same,"HR (heart rate) dimension number, RT","[4]; reaction test, group sum",3.42
same,"SCL (skin conductance level) dimension number, RT","[4]; reaction test, group sum",4.05
same,"AF (breathing rate) dimension number, Animals",[4]; [12],3.10
same,"HR (heart rate) dimension number, Animals",[4]; [12],3.49
same,"SCL (skin conductance level) dimension number, Animals",[4]; [12],4.67
same,performance ability for the problem solutions (ability to be stressed),"[4]; sum parameters, tendency, especially in the active test sequences",higher performance ability
same,number of blinks,"[5]; all test methods, compared with Energy group",markedly lower
same,enhancement of gaze latencies in the after state,"[5]; real film sequences, before/after",low enhancements
O=C(/C=C/c1cccnc1)NCCCCC1CCN(C(=O)c2ccccc2)CC1 [FK866],effect of FK866 on cell viability,[1]; FIG. 3B,cell death
same,effect of FK866 on cell viability,[2]; FIG. 3A,cell death
"O=C(O)c1cccnc1 [NA, nicotinic acid]",cell survival with substance as extracellular precursor,[1],restoration of survival
same,cell survival with substance as extracellular precursor,[2],able to restore
same,mitochondrial NAD+ content/formation with substance as extracellular precursor,[6],able to restore
same,generation of mitochondrial NAD+ with substance as extracellular precursor,[7],not able to provide support
same,survival/viability of the cell with substance as extracellular precursor,[7],not able to provide support
"NC(=O)c1ccc[n+]([C@@H]2O[C@H](COP(=O)([O-])OP(=O)(O)OC[C@H]3O[C@@H](n4cnc5c(N)ncnc54)[C@H](O)[C@@H]3O)[C@@H](O)[C@H]2O)c1 [NAD^+, nicotinamide adenine dinucleotide]",mitochondrial PAR formation from the extracellular precursor on overexpression of NRK1,[8],considerably improved
"O=C(O)c1ccc[n+]([C@@H]2O[C@H](COP(=O)(O)O)[C@@H](O)[C@H]2O)c1 [NAMN, nicotinic acid mononucleotide]",cell survival with substance as extracellular precursor,[1],restoration of survival; also recorded: protect
same,cell survival with substance as extracellular precursor,[2],able to restore; also recorded: protect
same,mitochondrial NAD+ generation of NAMN in presence of dipyridamol and NBTI,"[8]; compared with NMN, FIG. 4A","sensitive to these inhibitors, although less strongly"
same,mitochondrial NAD+ content/formation with substance as extracellular precursor,[6],able to restore; also recorded: support mitochondrial NAD^+ formation
same,mitochondrial NAD+ formation with substance as extracellular precursor,[9],support mitochondrial NAD^+ formation
O=[N+]([O-])c1ccc(CSc2ncnc3c2ncn3[C@@H]2O[C@H](CO)[C@@H](O)[C@H]2O)cc1 [NBTI],effect of the inhibitor on NR usage,[8],inhibit the NR usage
same,function of NMN as extracellular NAD+ precursor in presence of the inhibitor,[8]; FIG. 4A,lost its function
"NC(=O)c1ccc[n+]([C@@H]2O[C@H](COP(=O)([O-])O)[C@@H](O)[C@H]2O)c1 [NMN, nicotinamide mononucleotide]",cell survival with substance as extracellular precursor,[1],restoration of survival; also recorded: protect
same,cell survival with substance as extracellular precursor,[2],able to restore; also recorded: protect
same,mitochondrial PAR formation from the extracellular precursor on overexpression of NRK1,[8],dramatic increase
same,mitochondrial NAD+ content/formation with substance as extracellular precursor,[6],able to restore; also recorded: support mitochondrial NAD^+ formation
same,mitochondrial NAD+ formation with substance as extracellular precursor,[9],support mitochondrial NAD^+ formation
Cc1nc(N=Nc2ccc(S(=O)(=O)O)cc2S(=O)(=O)O)c(COP(=O)(O)O)c(C=O)c1O [PPADS],restoration of the mitochondrial NAD+ pool with NAD+ as extracellular precursor,"[8]; NPP inhibitor added, cell line not stated",prevents the restoration
same,survival of the cell with NAD+ as extracellular precursor,[10],prevents the restoration
OCCN(CCO)c1nc(N2CCCCC2)c2nc(N(CCO)CCO)nc(N3CCCCC3)c2n1 [dipyridamol],effect of the inhibitor on NR usage,[8],inhibit the NR usage
same,function of NMN as extracellular NAD+ precursor in presence of the inhibitor,[8]; FIG. 4A,lost its function
